Data published in ChEMBL document CHEMBL1139677, “DNA interstrand crosslinking agents: synthesis, DNA interactions, and cytotoxicity of dimeric achiral seco-amino-CBI and conjugates of achiral seco-amino-CBI with pyrrolobenzodiazepine (PBD)” (Bioorg Med Chem Lett, 2006).
pIC50: −log10 of the molar value. Activity calls are given as the source filed them. The rule behind the calls is not given here.

What was measured:
P815 [1] = assay: Cytotoxicity against mouse P815 cells after 3 days; format: cell-based; details: P815, 72 h
P815 [2] = assay: Cell cycle arrest in mouse P815 cells by accumulation at subG0 phase at 0.026 uM; format: functional
[3] = Induction of supercoiled pBR322 DNA strand cleavage at 6.6 uM; format: functional
[4] = Induction of linear pBR322 DNA interstrand crosslinking at 10 uM; format: functional
[5] = Induction of pBR322 DNA alkylation at 1 uM by thermally induced cleavage assay; format: functional
[6] = Induction of pBR322 DNA alkylation at 10 uM by thermally induced cleavage assay; format: functional
[7] = Induction of linear pBR322 DNA interstrand crosslinking; format: functional
[8] = Induction of pBR322 DNA alkylation at 0.1 uM by thermally induced cleavage assay; format: functional
[9] = Induction of supercoiled pBR322 DNA strand cleavage; format: functional
[10] = Induction of pBR322 DNA alkylation at 100 uM by thermally induced cleavage assay; format: functional

**Q.** What does the source list for `COc1cc2c(cc1OCCC(=O)Nc1ccc3oc(C(=O)Nc4cc(N)c5ccccc5c4CCCl)cc3c1)N=C[C@@H]1CCCN1C2=O`?
**A.** pIC50 (P815 [1]): 7.59; Activity (P815 [2]): 21%; Activity [3]: 16%; Activity [4]: Active; Activity [5]: Active; Activity [6]: Active

**Q.** With `COc1cc2cc(C(=O)N3CC(CCl)c4c3cc(O)c3ccccc43)[nH]c2c(OC)c1OC` (stereo not given) as the compound, how does the pIC50 (P815 [1]) read?
**A.** 8.07

**Q.** For `C=C1C[C@H]2C=Nc3cc(OCCCOc4cc5c(cc4OC)C(=O)N4CC(=C)C[C@H]4C=N5)c(OC)cc3C(=O)N2C1`, which Activity [7] is on record?
**A.** Active

**Q.** With `COc1cc2c(cc1OCCC(=O)Nc1ccc3oc(C(=O)Nc4cc(O)ccc4CCCl)cc3c1)N=C[C@@H]1CCCN1C2=O` as the compound, how does the pIC50 (P815 [1]) read?
**A.** 6.25

**Q.** With `Nc1cc(NC(=O)c2cc3cc(NC(=O)Nc4ccc5oc(C(=O)Nc6cc(N)c7ccccc7c6CCCl)cc5c4)ccc3o2)c(CCCl)c2ccccc12` as the compound, how does the pIC50 (P815 [1]) read?
**A.** 4.38

**Q.** For `COc1c(O)c2c(c3cc(C(=O)N4CCc5c4c(O)c(OC)c4[nH]c(C(=O)N6C[C@H]7C[C@@]78C6=CC(=O)c6[nH]cc(C)c68)cc54)[nH]c13)CCN2C(N)=O`, which Activity [8] is on record?
**A.** Active

**Q.** With `COc1cc2cc(C(=O)Nc3cc(N)c4ccccc4c3CCCl)[nH]c2c(OC)c1OC` [CENTANAMYCIN] as the compound, how does the pIC50 (P815 [1]) read?
**A.** 7.17

**Q.** With `COC(=O)CCOc1cc2c(cc1OC)C(=O)N1CCC[C@H]1C=N2` as the compound, how does the pIC50 (P815 [1]) read?
**A.** 4.26

**Q.** And the Activity [9]?
**A.** 4%

**Q.** What about the Activity [10] of the same compound?
**A.** inactive
